Assay results reported in patent publication US12138256B2, “Treatment of cardiopulmonary disorders” (Bayer Aktiengesellschaft, priority 2021, dated 2024).
“And” between values parts separate entries of the source, which are not always exact repeats. Equal entries are not always repeated.

Test system: anesthetized PAH minipigs
Experiment: PAH minipig model: intratracheal application of dry powder formulations and different hydrates (PennCentury insufflator)
Assay type: in vivo, Göttingen minipig
Settings: for efficacy with regard to PAP reduction as well as systemic BP reduction: 1.5 mg/4 kg (=375 μg/kg) intratracheally, micronized; for BP (mean) / PAP(mean) / BP % changes vs. prevalues / PAP % changes vs. prevalues / PAP % changes vs. baseline: 375 μg/kg i.t.; for BP (mean) / PAP(mean): absolute values; for BP % changes vs. prevalues / PAP % changes vs. prevalues / PAP % changes vs. baseline: each animal
From the text: After characterization of the effects of comparative example 11 after nebulization of compound solutions, in a further step the effects of crystalline forms of comparative example 11, e.g. sesquihydrate, e.g. example 6e on PAP and BP after inhaled application of different dry powder lactose formulations (table C2.1.8) were studied in anesthetized PAH minipigs.
As reference pure Lactose vehicle was applied in the beginning of each experiment.

## O.O=C(O)c1ccc(CCN(CCc2ccccc2OCc2ccc(-c3ccc(C(F)(F)F)cc3)cc2Cl)[C@H]2CCCc3nc(C(=O)O)ccc32)cc1.O=C(O)c1ccc(CCN(CCc2ccccc2OCc2ccc(-c3ccc(C(F)(F)F)cc3)cc2Cl)[C@H]2CCCc3nc(C(=O)O)ccc32)cc1 [example 6a, (5S)-{[2-(4-Carboxyphenyl)ethyl][2-(2-{[3-chloro-4′-(trifluoromethyl)biphenyl-4-yl]methoxy}phenyl)-ethyl]amino}-5,6,7,8-tetrahydroquinoline-2-carboxylic acid semihydrate]
  efficacy with regard to PAP reduction as well as systemic BP reduction: comparable efficacy
Time 0
  BP (mean): 101 mmHg and 85 mmHg
  PAP(mean): 39.6 mmHg and 40.8 mmHg and 38.5 mmHg
Time 10
  BP (mean): 103 mmHg and 83 mmHg and 79 mmHg
  PAP(mean): 40.2 mmHg and 41.1 mmHg
Time 20
  BP (mean): 101 mmHg and 83 mmHg and 84 mmHg
  PAP(mean): 40.4 mmHg and 41.3 mmHg
Time 30
  BP (mean): 100 mmHg and 81 mmHg and 88 mmHg
  PAP(mean): 40.2 mmHg and 41.3 mmHg
Time 40
  BP (mean): 98 mmHg and 81 mmHg and 90 mmHg
  PAP(mean): 40.4 mmHg and 41.8 mmHg and 41.0 mmHg
Time 50
  BP (mean): 99 mmHg and 78 mmHg and 89 mmHg
  PAP(mean): 40.7 mmHg and 41.7 mmHg and 40.9 mmHg
  BP % changes vs. prevalues: 99.6% and 98.4% and 100.6%
  PAP % changes vs. prevalues: 99.3% and 98.7% and 98.9%
Time 60
  BP (mean): 100 mmHg and 79 mmHg and 86 mmHg
  PAP(mean): 41.2 mmHg and 42.0 mmHg and 40.9 mmHg
  BP % changes vs. prevalues: 100.6% and 99.7% and 97.2%
  PAP % changes vs. prevalues: 100.7% and 99.4% and 99.2%
Time 70
  BP (mean): 102 mmHg and 78 mmHg and 87 mmHg
  PAP(mean): 38.8 mmHg and 40.6 mmHg and 40.1 mmHg
  BP % changes vs. prevalues: 102.6% and 98.4% (2×)
  PAP % changes vs. prevalues: 94.7% and 96.1% and 97.0%
Time 80
  BP (mean): 102 mmHg and 79 mmHg and 90 mmHg
  PAP(mean): 34.1 mmHg and 39.9 mmHg and 37.7 mmHg
  BP % changes vs. prevalues: 102.6% and 99.7% and 101.8%
  PAP % changes vs. prevalues: 83.4% and 94.5% and 91.2%
Time 90
  BP (mean): 101 mmHg and 81 mmHg and 92 mmHg
  PAP(mean): 30.1 mmHg and 37.7 mmHg and 36.6 mmHg
  BP % changes vs. prevalues: 101.6% and 102.2% and 104.0%
  PAP % changes vs. prevalues: 73.4% and 89.2% and 88.7%
Time 100
  BP (mean): 100 mmHg and 80 mmHg and 95 mmHg
  PAP(mean): 28.3 mmHg and 35.9 mmHg and 35.0 mmHg
  BP % changes vs. prevalues: 100.6% and 101.0% and 107.4%
  PAP % changes vs. prevalues: 69.0% and 85.0% and 84.7%
Time 110
  BP (mean): 99 mmHg and 79 mmHg
  PAP(mean): 27.2 mmHg and 34.8 mmHg and 34.0 mmHg
  BP % changes vs. prevalues: 99.6% and 99.7% and 111.9%
  PAP % changes vs. prevalues: 66.5% and 82.4% and 82.1%
Time 120
  BP (mean): 99 mmHg and 79 mmHg and 96 mmHg
  PAP(mean): 26.4 mmHg and 34.1 mmHg and 32.9 mmHg
  BP % changes vs. prevalues: 99.6% and 99.7% and 108.6%
  PAP % changes vs. prevalues: 64.4% and 80.8% and 79.7%
Time 130
  BP (mean): 98 mmHg and 81 mmHg and 97 mmHg
  PAP(mean): 25.7 mmHg and 33.7 mmHg and 31.7 mmHg
  BP % changes vs. prevalues: 98.6% and 102.2% and 109.7%
  PAP % changes vs. prevalues: 62.8% and 79.9% and 76.7%
Time 140
  BP (mean): 99 mmHg and 82 mmHg and 98 mmHg
  PAP(mean): 25.3 mmHg and 33.2 mmHg and 31.3 mmHg
  BP % changes vs. prevalues: 99.6% and 103.5% and 110.8%
  PAP % changes vs. prevalues: 61.8% and 78.7% and 75.7%
Time 150
  BP (mean): 97 mmHg and 82 mmHg
  PAP(mean): 25.0 mmHg and 32.9 mmHg and 30.7 mmHg
  BP % changes vs. prevalues: 97.6% and 103.5% and 109.7%
  PAP % changes vs. prevalues: 60.9% and 78.0% and 74.3%
Time 160
  PAP(mean): 24.5 mmHg and 32.5 mmHg and 30.2 mmHg
  BP % changes vs. prevalues: 96.6% and 102.2% and 109.7%
  PAP % changes vs. prevalues: 59.9% and 77.1% and 73.1%
Time 170
  BP % changes vs. prevalues: 95.6% and 99.7% and 107.4%
  PAP % changes vs. prevalues: 58.6% and 76.7% and 72.3%
Time 180
  BP % changes vs. prevalues: 94.6% and 99.7% and 106.3%
  PAP % changes vs. prevalues: 58.0% and 75.4% and 71.8%
Time 190
  BP % changes vs. prevalues: 94.6% and 108.5% and 105.2%
  PAP % changes vs. prevalues: 59.5% and 78.4% and 70.7%
Time 200
  BP % changes vs. prevalues: 92.6% and 107.3% and 104.0%
  PAP % changes vs. prevalues: 60.5% and 76.8% and 71.1%
Time 210
  BP % changes vs. prevalues: 90.6% and 102.2% and 102.9%
  PAP % changes vs. prevalues: 60.6%
Time −10
  BP (mean): 99 mmHg and 85 mmHg and 86 mmHg
  PAP(mean): 38.7 mmHg and 40.6 mmHg

## O.O.O.O=C(O)c1ccc(CCN(CCc2ccccc2OCc2ccc(-c3ccc(C(F)(F)F)cc3)cc2Cl)[C@H]2CCCc3nc(C(=O)O)ccc32)cc1.O=C(O)c1ccc(CCN(CCc2ccccc2OCc2ccc(-c3ccc(C(F)(F)F)cc3)cc2Cl)[C@H]2CCCc3nc(C(=O)O)ccc32)cc1 [example 6e, (5S)-{[2-(4-Carboxyphenyl)ethyl][2-(2-{[3-chloro-4′-(trifluoromethyl)biphenyl-4-yl]methoxy}phenyl)-ethyl]amino}-5,6,7,8-tetrahydroquinoline-2-carboxylic acid sesquihydrate]
  efficacy with regard to PAP reduction as well as systemic BP reduction: comparable efficacy
Lactose formulation I 7.5 μg/kg, II 22.5 μg/kg, micronized sesquihydrate 375 μg/kg, n=3
  effect on PAP and BP after i.t. application: decrease of PAP without any effects on BP
Lactose formulation I 7.5 μg/kg, lactose formulation II 22.5 μg/kg, micronized sesquihydrate 375 μg/kg
  time to maximum effect on PAP after i.t. application: approximately 80 min
Time 80
  PAP % changes vs. baseline: 100.0%
Time 90, sesquihydrate
  PAP % changes vs. baseline: 98.9% and 103.6% and 99.8%
Time 100, sesquihydrate
  PAP % changes vs. baseline: 99.5% and 101.4% and 97.3%
Time 110, sesquihydrate
  PAP % changes vs. baseline: 89.3% and 98.7% and 86.8%
Time 120, sesquihydrate
  PAP % changes vs. baseline: 84.0% and 95.6% and 75.7%
Time 130, sesquihydrate
  PAP % changes vs. baseline: 78.9% and 93.7% and 70.2%
Time 140, sesquihydrate
  PAP % changes vs. baseline: 75.2% and 91.8% and 67.5%
Time 150, sesquihydrate
  PAP % changes vs. baseline: 74.0% and 76.0% and 65.4%
Time 160, sesquihydrate
  PAP % changes vs. baseline: 71.0% and 79.5% and 65.9%
Time 170, sesquihydrate
  PAP % changes vs. baseline: 68.5% and 74.3% and 61.5%
Time 180, sesquihydrate
  PAP % changes vs. baseline: 63.2% and 80.8% and 62.0%
Time 190, sesquihydrate
  PAP % changes vs. baseline: 61.5% and 80.8% and 58.6%
Time 200, sesquihydrate
  PAP % changes vs. baseline: 62.3% and 80.3% and 60.2%
Time 210, sesquihydrate
  PAP % changes vs. baseline: 61.0% and 80.7% and 59.4%
Time 220, sesquihydrate
  PAP % changes vs. baseline: 59.5% and 86.3% and 57.8%
Time 230, sesquihydrate
  PAP % changes vs. baseline: 58.6% and 82.6% and 57.8%
Time 240, sesquihydrate
  PAP % changes vs. baseline: 59.3% and 81.5% and 57.6%
Time 250, sesquihydrate
  PAP % changes vs. baseline: 59.3% and 82.2% and 56.1%
Time 260, sesquihydrate
  PAP % changes vs. baseline: 58.8% and 82.7% and 57.6%
Time 270, sesquihydrate
  PAP % changes vs. baseline: 59.9% and 78.3% and 55.4%
Time 280, sesquihydrate
  PAP % changes vs. baseline: 58.4% and 78.3% and 55.9%
Time 290, sesquihydrate
  PAP % changes vs. baseline: 57.4% and 79.6% and 53.9%
Time 300, sesquihydrate
  PAP % changes vs. baseline: 60.1% and 78.7% and 54.5%
Time 310, sesquihydrate
  PAP % changes vs. baseline: 58.4% and 77.6% and 53.7%
Time 320, sesquihydrate
  PAP % changes vs. baseline: 61.8% and 76.3% and 55.1%
Time 330, sesquihydrate
  PAP % changes vs. baseline: 61.3% and 74.8% and 53.0%
